Source: the NIST ThermoML archive (doi:10.1016/j.jct.2009.11.011)
Where “and” joins values, the source holds several entries; their conditions need not be identical. Equal values may be shown once. ± gives the expanded uncertainty stated by the source.

Experiments:
[1] = Molar enthalpy of transition or fusion; conditions: Crystal; Adiabatic calorimetry
[2] = molar heat capacity at saturation pressure
[3] = for vapor or sublimation pressure: Liquid, Ebulliometric method (Recirculating still)

c1cnc2c(c1)ccc1cccnc12 [1,10-phenanthroline]
Molar enthalpy of transition or fusion [1]: 15.5 ± 0.017 kJ/mol | molar heat capacity ([2]; 5 K, Crystal, Vacuum adiabatic calorimetry): 1.26 ± 0.02 J/K/mol | molar heat capacity ([2]; 5.659 K, Crystal, Vacuum adiabatic calorimetry): 1.78 ± 0.03 J/K/mol | molar heat capacity ([2]; 6.394 K, Crystal, Vacuum adiabatic calorimetry): 2.35 ± 0.03 J/K/mol | molar heat capacity ([2]; 7.405 K, Crystal, Vacuum adiabatic calorimetry): 3.18 ± 0.04 J/K/mol | molar heat capacity ([2]; 8.419 K, Crystal, Vacuum adiabatic calorimetry): 4.13 ± 0.05 J/K/mol | molar heat capacity ([2]; 9.46 K, Crystal, Vacuum adiabatic calorimetry): 5.19 ± 0.06 J/K/mol | molar heat capacity ([2]; 10 K, Crystal, Vacuum adiabatic calorimetry): 5.74 ± 0.06 J/K/mol | molar heat capacity ([2]; 10.55 K, Crystal, Vacuum adiabatic calorimetry): 6.31 ± 0.06 J/K/mol | molar heat capacity ([2]; 11.75 K, Crystal, Vacuum adiabatic calorimetry): 7.62 ± 0.07 J/K/mol | molar heat capacity ([2]; 13.08 K, Crystal, Vacuum adiabatic calorimetry): 9.121 ± 0.07 J/K/mol | molar heat capacity ([2]; 14.53 K, Crystal, Vacuum adiabatic calorimetry): 10.68 ± 0.083 J/K/mol | molar heat capacity ([2]; 16.13 K, Crystal, Vacuum adiabatic calorimetry): 12.55 ± 0.091 J/K/mol | molar heat capacity ([2]; 17.88 K, Crystal, Vacuum adiabatic calorimetry): 14.51 ± 0.1 J/K/mol | molar heat capacity ([2]; 19.8 K, Crystal, Vacuum adiabatic calorimetry): 16.6 ± 0.11 J/K/mol | molar heat capacity ([2]; 20 K, Crystal, Vacuum adiabatic calorimetry): 16.82 ± 0.11 J/K/mol | molar heat capacity ([2]; 21.93 K, Crystal, Vacuum adiabatic calorimetry): 18.87 ± 0.11 J/K/mol | molar heat capacity ([2]; 24.3 K, Crystal, Vacuum adiabatic calorimetry): 21.41 ± 0.11 J/K/mol | molar heat capacity ([2]; 26.92 K, Crystal, Vacuum adiabatic calorimetry): 24.1 ± 0.11 J/K/mol | molar heat capacity ([2]; 29.85 K, Crystal, Vacuum adiabatic calorimetry): 26.95 ± 0.11 J/K/mol | molar heat capacity ([2]; 30 K, Crystal, Vacuum adiabatic calorimetry): 27.1 ± 0.1 J/K/mol | molar heat capacity ([2]; 33.1 K, Crystal, Vacuum adiabatic calorimetry): 29.99 ± 0.1 J/K/mol | molar heat capacity ([2]; 36.75 K, Crystal, Vacuum adiabatic calorimetry): 33.23 ± 0.11 J/K/mol | molar heat capacity ([2]; 40 K, Crystal, Vacuum adiabatic calorimetry): 35.93 ± 0.12 J/K/mol | molar heat capacity ([2]; 40.82 K, Crystal, Vacuum adiabatic calorimetry): 36.58 ± 0.12 J/K/mol | molar heat capacity ([2]; 45.34 K, Crystal, Vacuum adiabatic calorimetry): 40.14 ± 0.12 J/K/mol | molar heat capacity ([2]; 50 K, Crystal, Vacuum adiabatic calorimetry): 43.64 ± 0.12 J/K/mol | molar heat capacity ([2]; 50.36 K, Crystal, Vacuum adiabatic calorimetry): 43.96 ± 0.12 J/K/mol | molar heat capacity ([2]; 55.93 K, Crystal, Vacuum adiabatic calorimetry): 47.63 ± 0.13 J/K/mol | molar heat capacity ([2]; 57.69 K, Crystal, Vacuum adiabatic calorimetry): 48.9 ± 0.14 J/K/mol | molar heat capacity ([2]; 60 K, Crystal, Vacuum adiabatic calorimetry): 50.34 ± 0.14 J/K/mol | molar heat capacity ([2]; 60.42 K, Crystal, Vacuum adiabatic calorimetry): 50.6 ± 0.14 J/K/mol | molar heat capacity ([2]; 63.28 K, Crystal, Vacuum adiabatic calorimetry): 52.36 ± 0.14 J/K/mol | molar heat capacity ([2]; 66.47 K, Crystal, Vacuum adiabatic calorimetry): 54.41 ± 0.15 J/K/mol | molar heat capacity ([2]; 69.78 K, Crystal, Vacuum adiabatic calorimetry): 56.39 ± 0.15 J/K/mol | molar heat capacity ([2]; 70 K, Crystal, Vacuum adiabatic calorimetry): 56.51 ± 0.15 J/K/mol | molar heat capacity ([2]; 73.24 K, Crystal, Vacuum adiabatic calorimetry): 58.45 ± 0.16 J/K/mol | molar heat capacity ([2]; 76.94 K, Crystal, Vacuum adiabatic calorimetry): 60.52 ± 0.16 J/K/mol | molar heat capacity ([2]; 80 K, Crystal, Vacuum adiabatic calorimetry): 62.29 ± 0.17 J/K/mol | molar heat capacity ([2]; 80.6 K, Crystal, Vacuum adiabatic calorimetry): 62.63 ± 0.17 J/K/mol | molar heat capacity ([2]; 84.91 K, Crystal, Vacuum adiabatic calorimetry): 65 ± 0.17 J/K/mol | molar heat capacity ([2]; 88.8 K, Crystal, Vacuum adiabatic calorimetry): 67.21 ± 0.17 J/K/mol | molar heat capacity ([2]; 90 K, Crystal, Vacuum adiabatic calorimetry): 67.87 ± 0.27 J/K/mol | molar heat capacity ([2]; 97.84 K, Crystal, Vacuum adiabatic calorimetry): 72.09 ± 0.27 J/K/mol | molar heat capacity ([2]; 100 K, Crystal, Vacuum adiabatic calorimetry): 73.23 ± 0.27 J/K/mol | molar heat capacity ([2]; 100.26 K, Crystal, Vacuum adiabatic calorimetry): 73.38 ± 0.27 J/K/mol | molar heat capacity ([2]; 109.98 K, Crystal, Vacuum adiabatic calorimetry): 78.65 ± 0.28 J/K/mol | molar heat capacity ([2]; 119.96 K, Crystal, Vacuum adiabatic calorimetry): 84.22 ± 0.28 J/K/mol | molar heat capacity ([2]; 120 K, Crystal, Vacuum adiabatic calorimetry): 84.24 ± 0.28 J/K/mol | molar heat capacity ([2]; 131.01 K, Crystal, Vacuum adiabatic calorimetry): 90.44 ± 0.29 J/K/mol | molar heat capacity ([2]; 140 K, Crystal, Vacuum adiabatic calorimetry): 95.58 ± 0.3 J/K/mol | molar heat capacity ([2]; 143.07 K, Crystal, Vacuum adiabatic calorimetry): 97.35 ± 0.3 J/K/mol | molar heat capacity ([2]; 155.1 K, Crystal, Vacuum adiabatic calorimetry): 104.48 ± 0.31 J/K/mol | molar heat capacity ([2]; 160 K, Crystal, Vacuum adiabatic calorimetry): 107.41 ± 0.31 J/K/mol | molar heat capacity ([2]; 167.1 K, Crystal, Vacuum adiabatic calorimetry): 111.7 ± 0.32 J/K/mol | molar heat capacity ([2]; 179.08 K, Crystal, Vacuum adiabatic calorimetry): 119.1 ± 0.32 J/K/mol | molar heat capacity ([2]; 180 K, Crystal, Vacuum adiabatic calorimetry): 119.68 ± 0.32 J/K/mol | molar heat capacity ([2]; 191.08 K, Crystal, Vacuum adiabatic calorimetry): 126.69 ± 0.32 J/K/mol | molar heat capacity ([2]; 200 K, Crystal, Vacuum adiabatic calorimetry): 132.42 ± 0.33 J/K/mol | molar heat capacity ([2]; 203.14 K, Crystal, Vacuum adiabatic calorimetry): 134.46 ± 0.33 J/K/mol | molar heat capacity ([2]; 215.25 K, Crystal, Vacuum adiabatic calorimetry): 142.45 ± 0.34 J/K/mol | molar heat capacity ([2]; 220 K, Crystal, Vacuum adiabatic calorimetry): 145.57 ± 0.35 J/K/mol | molar heat capacity ([2]; 227.38 K, Crystal, Vacuum adiabatic calorimetry): 150.47 ± 0.35 J/K/mol | molar heat capacity ([2]; 239.55 K, Crystal, Vacuum adiabatic calorimetry): 158.67 ± 0.36 J/K/mol | molar heat capacity ([2]; 240 K, Crystal, Vacuum adiabatic calorimetry): 158.97 ± 0.36 J/K/mol | molar heat capacity ([2]; 251.77 K, Crystal, Vacuum adiabatic calorimetry): 167.01 ± 0.37 J/K/mol | molar heat capacity ([2]; 260 K, Crystal, Vacuum adiabatic calorimetry): 172.69 ± 0.37 J/K/mol | molar heat capacity ([2]; 264.02 K, Crystal, Vacuum adiabatic calorimetry): 175.49 ± 0.37 J/K/mol | molar heat capacity ([2]; 276.3 K, Crystal, Vacuum adiabatic calorimetry): 183.86 ± 0.38 J/K/mol | molar heat capacity ([2]; 280 K, Crystal, Vacuum adiabatic calorimetry): 186.36 ± 0.39 J/K/mol | molar heat capacity ([2]; 288.6 K, Crystal, Vacuum adiabatic calorimetry): 192.35 ± 0.39 J/K/mol | molar heat capacity ([2]; 289.46 K, Crystal, Vacuum adiabatic calorimetry): 192.8 ± 0.39 J/K/mol | molar heat capacity ([2]; 298.15 K, Crystal, Vacuum adiabatic calorimetry): 198.74 ± 0.4 J/K/mol | molar heat capacity ([2]; 300 K, Crystal, Vacuum adiabatic calorimetry): 200 ± 0.4 J/K/mol | molar heat capacity ([2]; 300.24 K, Crystal, Vacuum adiabatic calorimetry): 200.19 ± 0.4 J/K/mol | molar heat capacity ([2]; 312.29 K, Crystal, Vacuum adiabatic calorimetry): 208.49 ± 0.41 J/K/mol | molar heat capacity ([2]; 320 K, Crystal, Vacuum adiabatic calorimetry): 213.76 ± 0.42 J/K/mol | molar heat capacity ([2]; 324.53 K, Crystal, Vacuum adiabatic calorimetry): 216.87 ± 0.42 J/K/mol | molar heat capacity ([2]; 336.89 K, Crystal, Vacuum adiabatic calorimetry): 225.26 ± 0.42 J/K/mol | molar heat capacity ([2]; 336.98 K, Crystal, Vacuum adiabatic calorimetry): 225.23 ± 0.42 J/K/mol | molar heat capacity ([2]; 340 K, Crystal, Vacuum adiabatic calorimetry): 227.24 ± 0.42 J/K/mol | molar heat capacity ([2]; 348.97 K, Crystal, Vacuum adiabatic calorimetry): 233.42 ± 0.43 J/K/mol | molar heat capacity ([2]; 349.32 K, Crystal, Vacuum adiabatic calorimetry): 233.65 ± 0.43 J/K/mol | molar heat capacity ([2]; 360 K, Crystal, Vacuum adiabatic calorimetry): 240.63 ± 0.44 J/K/mol | molar heat capacity ([2]; 361.05 K, Crystal, Vacuum adiabatic calorimetry): 241.49 ± 0.44 J/K/mol | molar heat capacity ([2]; 373.19 K, Crystal, Vacuum adiabatic calorimetry): 249.78 ± 0.45 J/K/mol | molar heat capacity ([2]; 375.19 K, Liquid, Vacuum adiabatic calorimetry): 297.88 ± 0.5 J/K/mol | molar heat capacity ([2]; 380 K, Crystal, Vacuum adiabatic calorimetry): 253.68 ± 0.46 J/K/mol | molar heat capacity ([2]; 380 K, Liquid, Vacuum adiabatic calorimetry): 300.22 ± 0.5 J/K/mol | molar heat capacity ([2]; 381.3 K, Crystal, Vacuum adiabatic calorimetry): 256.64 ± 0.46 J/K/mol | molar heat capacity ([2]; 382.84 K, Liquid, Vacuum adiabatic calorimetry): 301.57 ± 0.5 J/K/mol | molar heat capacity ([2]; 383.75 K, Crystal, Vacuum adiabatic calorimetry): 260.04 ± 0.46 J/K/mol | molar heat capacity ([2]; 391.52 K, Liquid, Vacuum adiabatic calorimetry): 305.71 ± 0.51 J/K/mol | molar heat capacity ([2]; 391.71 K, Crystal, Vacuum adiabatic calorimetry): 261.46 ± 0.47 J/K/mol | molar heat capacity ([2]; 391.71 K, Liquid, Vacuum adiabatic calorimetry): 305.81 ± 0.51 J/K/mol | molar heat capacity ([2]; 397.93 K, Liquid, Vacuum adiabatic calorimetry): 308.79 ± 0.51 J/K/mol | molar heat capacity ([2]; 400 K, Liquid, Vacuum adiabatic calorimetry): 309.76 ± 0.51 J/K/mol | molar heat capacity ([2]; 400.3 K, Liquid, Vacuum adiabatic calorimetry): 309.93 ± 0.51 J/K/mol | molar heat capacity ([2]; 402.69 K, Liquid, Vacuum adiabatic calorimetry): 311.03 ± 0.51 J/K/mol | molar heat capacity ([2]; 404.9 K, Liquid, Vacuum adiabatic calorimetry): 312.06 ± 0.52 J/K/mol | molar heat capacity ([2]; 413.55 K, Liquid, Vacuum adiabatic calorimetry): 316.13 ± 0.52 J/K/mol | molar heat capacity ([2]; 416.42 K, Liquid, Vacuum adiabatic calorimetry): 317.49 ± 0.52 J/K/mol | molar heat capacity ([2]; 420 K, Liquid, Vacuum adiabatic calorimetry): 319.14 ± 0.52 J/K/mol | molar heat capacity ([2]; 429.03 K, Liquid, Vacuum adiabatic calorimetry): 323.3 ± 0.52 J/K/mol | molar heat capacity ([2]; 439.59 K, Liquid, Vacuum adiabatic calorimetry): 328.19 ± 0.53 J/K/mol | molar heat capacity ([2]; 440 K, Liquid, Vacuum adiabatic calorimetry): 328.39 ± 0.53 J/K/mol | molar heat capacity ([2]; 460 K, Liquid): 337.52 ± 3.4 J/K/mol | molar heat capacity ([2]; 480 K, Liquid): 346.29 ± 3.5 J/K/mol | molar heat capacity ([2]; 500 K, Liquid): 355 ± 3.6 J/K/mol | molar heat capacity ([2]; 520 K, Liquid): 363.5 ± 3.7 J/K/mol | molar heat capacity ([2]; 540 K, Liquid): 371.9 ± 3.7 J/K/mol | molar heat capacity ([2]; 560 K, Liquid): 380.1 ± 3.8 J/K/mol | molar heat capacity ([2]; 580 K, Liquid): 388.2 ± 3.9 J/K/mol | molar heat capacity ([2]; 600 K, Liquid): 396 ± 4 J/K/mol | vapor or sublimation pressure ([3]; 523.28 K): 2 ± 0.01 kPa and 2.001 ± 0.01 kPa | vapor or sublimation pressure ([3]; 531.9 K): 2.668 ± 0.011 kPa | vapor or sublimation pressure ([3]; 554.04 K): 5.325 ± 0.011 kPa | vapor or sublimation pressure ([3]; 568.22 K): 8.008 ± 0.012 kPa | vapor or sublimation pressure ([3]; 578.69 K): 10.65 ± 0.012 kPa | vapor or sublimation pressure ([3]; 587.24 K): 13.33 ± 0.013 kPa | vapor or sublimation pressure ([3]; 595.98 K): 16.64 ± 0.014 kPa | vapor or sublimation pressure ([3]; 603.36 K): 19.95 ± 0.015 kPa | Triple point temperature ([3]; Crystal, Adiabatic calorimetry): 391.71 ± 0.05 K
